Inhibition data for 2 molecules are collected here from patent US20230089506A1, “Herbicide Combinations Comprising Glufosinate and Fluthiacet-Methyl” (BASF SE, priority 2020, published 2023).

The test system of test [1] is Conyza canadiensis (ERICA). Briefly: Greenhouse post-emergence weed control, percent injury vs untreated control. The test is classed as in vivo. The following applies: 504 h. As to the method:
(§1) Glufosinate was used as a commercial SL formulation containing 280 g ai/l of glufosinate (Liberty 280 SL, BASF). While the PPO herbicide Cadet containing 109 g ai/l fluthiacet-methyl was used (Cadet, FMC) formulation. • The evaluation for plant injury or damage caused by the chemical compositions was carried out using a scale from 0-100% when compared with the untreated control plants. Here, 0 means no damage and 100 means complete destruction of the plants.
(§2) 22., E=X+Y−(X*Y/100), where • X=effect in percent using herbicide A at an application rate of a; • Y=effect in percent using herbicide B at an application rate of b; • E=expected effect (in %) of A+B at application rates a+b.
(§3) The value E corresponds to the effect (plant damage or injury) which is to be expected if the activity of the individual compounds is just additive. If the observed effect is higher than the value E calculated according to Colby, a synergistic effect is present.
(§4) Seedlings of marestail (Conyza canadiensis; ERICA) and barnyardgrass (Echinochloa crusgalli; ECHCG) were treated with postemergence applications of either glufosinate at 246 g ai/ha, fluthiacet-methyl at 0.72 g ai/ha, or the combination of glufosinate (246 g ai/ha) and fluthiacet-methyl (0.72 g ai/ha), respectively, when they were 5-10 cm in height. All glufosinate treatments contained 1% (w/v) ammonium sulfate and solo fluthiacet-methyl treatments contained 1% (w/v) ammonium sulfate plus 1% (v/v) MSO surfactant. Plants were placed in a completely randomized design with four replications per treatment. Percent injury data was collected 21 days after treatment (DAT).

The test system of test [2] is Echinochloa crus-galli (ECHCG). The description is as above. The test is classed as in vivo. The note with it: 504 h. How it is done:
as §1, §2, §3, §4

The mark [3] stands for this setting: read-out: % activity, Solo Glufosinate (246 g ai/ha).

Regarding `COC(=O)CSc1cc(/N=c2\sc(=O)n3n2CCCC3)c(F)cc1Cl` [Fluthiacet-methyl, fluthiacet-methyl], the inhibition at 0.72 g/ha in test [1] (ERICA seedlings 5-10 cm, postemergence, 0.72 g ai/ha, 21 DAT, 1% ammonium sulfate plus 1% MSO, scale 0-100%, read-out: % activity, Solo Fluthiacet-methyl (0.72 g ai/ha)) was determined as 23%; in test [2] (ECHCG seedlings 5-10 cm, postemergence, 0.72 g ai/ha, 21 DAT, 1% ammonium sulfate plus 1% MSO, scale 0-100%, read-out: % activity, Solo Fluthiacet-methyl (0.72 g ai/ha)) it was 20%.

`CP(=O)(O)CCC(N)C(=O)O` (racemic) [Glufosinate, (2RS)-2-amino-4-[hydroxy(methyl)phosphinoyl]butyric acid]: the inhibition at 246 g/ha in test [1] (setting [3]) was found to be 58%; in test [2] (setting [3]) it was 53%.
